From patent US20250325562A1, “Intravenous Ganaxolone Formulations and Methods of Use in Treating Status Epilepticus and Other Seizure Disorders” (MARINUS PHARMACEUTICALS, INC., priority 2015, published 2025)

Test system: pilocarpine induced status epilepticus (SE)
Test: Pilocarpine-induced status epilepticus in rats, cortical EEG power
Type: in vivo, Male Sprague-Dawley rats
Set-up: key to Treatment effect on EEG power vs vehicle, significance: * P < 0.05; ** P < 0.01; *** P < 0.001; **** P < 0.0001; ns = not significant
Details: 12 mg/kg IV
Method: This study was designed to determine the ability of a CAPTISOL-ganaxolone (GNX) formulation administered intravenously (IV) at 12 and 15 mg/kg to inhibit pilocarpine induced status epilepticus (SE). Allopregnanolone (Allo) (15 mg/kg; IV) was also evaluated for comparison. In this study, test drugs were administered either 15 or 60 minutes after onset of SE and compared to vehicle (30% Captisol).
Cortical EEG activity was recorded in rats before and after administration of pilocarpine to induce SE. Animals were pre-treated with LiCl to enhance and improve reliability of seizure induction and scopolamine to reduce peripheral cholinergic side effects of pilocarpine. EEG activity was recorded for 5 h after SE onset, and anticonvulsant activity was assessed by determining changes in EEG power over frequency ranges from 0.3 to 96 Hz.
Male Sprague-Dawley rats were used for the studies. Rats were surgically implanted with EEG electrodes and jugular vein catheters. The mean weight at the time of recording was 321+3 g (269-351 g).
EEG electrodes were surgically implanted in anesthetized rats. Animals were also treated with an anti-inflammatory anaelgesic (RIMADYL, (carprofen)) prior to surgery and a subcutaneous local anesthetic. Stainless steel screw electrodes chronically were implanted in the skull (0-80×¼″, Plastics-One, Roanoke, VA) such that the ends of the screws were flush with the inner skull surface. One electrode was located 3.0 mm anterior to bregma and 2 mm to the left of midline, and the second 4.0 mm posterior to bregma and 2.5 mm to the right of midline. The skull surface around the electrodes was sealed with super glue and dental acrylic, and the EEG electrode lead wires were inserted into a plastic pedestal mounted on the skull using dental acrylic. Wound edges were treated with triple antibiotic cream (bacitracin zinc, neomycin sulfate, polymyxin B sulfate; Walgreens). Following surgery, animals were administered antibiotic (ampicillin, 50 mg/kg IP at 0.4 mL/kg) and also received a chewable dose (˜10 mg) of Rimadyl following surgery. The animals were allowed to recover from EEG surgery for 1 week.
Rats were implanted with jugular-vein catheters (JVC) one week following EEG surgery. Rats were administered an anti-inflammatory/analgesic and then anesthetized and placed in a supine position. An incision was made in the skin on the right ventrolateral aspect of the neck to expose the external jugular vein which was then dissected free of surrounding fascia. A ligature was tied around the vein anteriorly to occlude blood flow returning to the heart. A second ligature was loosely tied around the vein posteriorly to create tension on the vessel during venotomy and catheter insertion. After incising the vein, a PE catheter (3Fr) was inserted into the vein and advanced approximately 30 mm towards the heart, positioning the tip at the junction of the precava and right atrium. After confirming patency of the catheter by blood withdrawal, the posterior ligature was tied off, and the catheter flushed with a “heparin-lock” solution (5 units heparin/ml saline) and plugged with a sterilized stainless steel pin. The catheter was then exteriorized by tunneling through the subcutaneous tissue to exit posterior to the head between the shoulder blades. Lastly, after suturing the catheter to the skin, all wounds were closed using sutures or wound clips. Immediately following surgery, the animals were awakened to assess catheter patency. Animals also received a chewable dose (˜10 mg) of Rimadyl following surgery to minimize pain and inflammation.
Animals were allowed a 1-week recovery time following JVC surgery. Jugular vein catheters were flushed daily with a 0.1 mL of heparin solution (5 units/mL) to maintain patency. On the day of surgery, the flushing solution contained ampicillin sulbactam (50 mg/kg). […]

## CC(=O)[C@H]1CC[C@H]2[C@@H]3CC[C@H]4C[C@](C)(O)CC[C@]4(C)[C@H]3CC[C@]12C [Ganaxolone, 3α-hydroxy, 3β-methyl-5α-pregnan-20-one]
15 min post SE onset, 0-5 Hz, 0-15 min. post drug
  Treatment effect on EEG power vs vehicle, significance: **** (**** P < 0.0001)
15 min post SE onset, 0-5 Hz, 1-2 hrs post drug
  Treatment effect on EEG power vs vehicle, significance: **** (**** P < 0.0001)
15 min post SE onset, 0-5 Hz, 2-3 hrs post drug
  Treatment effect on EEG power vs vehicle, significance: *** (*** P < 0.001)
15 min post SE onset, 0-5 Hz, 3-5 hrs post drug
  Treatment effect on EEG power vs vehicle, significance: ** (** P < 0.01)
15 min post SE onset, 0-5 Hz, 15-30 min post drug
  Treatment effect on EEG power vs vehicle, significance: **** (**** P < 0.0001)
15 min post SE onset, 0-5 Hz, 30-60 min post drug
  Treatment effect on EEG power vs vehicle, significance: **** (**** P < 0.0001)
15 min post SE onset, 5-10 Hz, 0-15 min. post drug
  Treatment effect on EEG power vs vehicle, significance: **** (**** P < 0.0001)
15 min post SE onset, 5-10 Hz, 1-2 hrs post drug
  Treatment effect on EEG power vs vehicle, significance: ** (** P < 0.01)
15 min post SE onset, 5-10 Hz, 2-3 hrs post drug
  Treatment effect on EEG power vs vehicle, significance: * (* P < 0.05)
15 min post SE onset, 5-10 Hz, 3-5 hrs post drug
  Treatment effect on EEG power vs vehicle, significance: ns
15 min post SE onset, 5-10 Hz, 15-30 min post drug
  Treatment effect on EEG power vs vehicle, significance: **** (**** P < 0.0001)
15 min post SE onset, 5-10 Hz, 30-60 min post drug
  Treatment effect on EEG power vs vehicle, significance: *** (*** P < 0.001)
15 min post SE onset, 10-30 Hz, 0-15 min. post drug
  Treatment effect on EEG power vs vehicle, significance: *** (*** P < 0.001)
15 min post SE onset, 10-30 Hz, 1-2 hrs post drug
  Treatment effect on EEG power vs vehicle, significance: * (* P < 0.05)
15 min post SE onset, 10-30 Hz, 2-3 hrs post drug
  Treatment effect on EEG power vs vehicle, significance: ns
15 min post SE onset, 10-30 Hz, 3-5 hrs post drug
  Treatment effect on EEG power vs vehicle, significance: ns
15 min post SE onset, 10-30 Hz, 15-30 min post drug
  Treatment effect on EEG power vs vehicle, significance: **** (**** P < 0.0001)
15 min post SE onset, 10-30 Hz, 30-60 min post drug
  Treatment effect on EEG power vs vehicle, significance: ** (** P < 0.01)
15 min post SE onset, 30-50 Hz, 0-15 min. post drug
  Treatment effect on EEG power vs vehicle, significance: *** (*** P < 0.001)
15 min post SE onset, 30-50 Hz, 1-2 hrs post drug
  Treatment effect on EEG power vs vehicle, significance: * (* P < 0.05)
15 min post SE onset, 30-50 Hz, 2-3 hrs post drug
  Treatment effect on EEG power vs vehicle, significance: ns
15 min post SE onset, 30-50 Hz, 3-5 hrs post drug
  Treatment effect on EEG power vs vehicle, significance: ns
15 min post SE onset, 30-50 Hz, 15-30 min post drug
  Treatment effect on EEG power vs vehicle, significance: *** (*** P < 0.001)
15 min post SE onset, 30-50 Hz, 30-60 min post drug
  Treatment effect on EEG power vs vehicle, significance: ** (** P < 0.01)
15 min post SE onset, 50-70 Hz, 0-15 min. post drug
  Treatment effect on EEG power vs vehicle, significance: ** (** P < 0.01)
15 min post SE onset, 50-70 Hz, 1-2 hrs post drug
  Treatment effect on EEG power vs vehicle, significance: ** (** P < 0.01)
15 min post SE onset, 50-70 Hz, 2-3 hrs post drug
  Treatment effect on EEG power vs vehicle, significance: ns
15 min post SE onset, 50-70 Hz, 3-5 hrs post drug
  Treatment effect on EEG power vs vehicle, significance: ns
15 min post SE onset, 50-70 Hz, 15-30 min post drug
  Treatment effect on EEG power vs vehicle, significance: ** (** P < 0.01)
15 min post SE onset, 50-70 Hz, 30-60 min post drug
  Treatment effect on EEG power vs vehicle, significance: * (* P < 0.05)
15 min post SE onset, 70-96 Hz, 0-15 min. post drug
  Treatment effect on EEG power vs vehicle, significance: ** (** P < 0.01)
15 min post SE onset, 70-96 Hz, 1-2 hrs post drug
  Treatment effect on EEG power vs vehicle, significance: ** (** P < 0.01)
15 min post SE onset, 70-96 Hz, 2-3 hrs post drug
  Treatment effect on EEG power vs vehicle, significance: ns
15 min post SE onset, 70-96 Hz, 3-5 hrs post drug
  Treatment effect on EEG power vs vehicle, significance: ns
15 min post SE onset, 70-96 Hz, 15-30 min post drug
  Treatment effect on EEG power vs vehicle, significance: ** (** P < 0.01)
15 min post SE onset, 70-96 Hz, 30-60 min post drug
  Treatment effect on EEG power vs vehicle, significance: * (* P < 0.05)
60 min post SE onset, 0-5 Hz, 0-15 min. post drug
  Treatment effect on EEG power vs vehicle, significance: *** (*** P < 0.001)
60 min post SE onset, 0-5 Hz, 1-2 hrs post drug
  Treatment effect on EEG power vs vehicle, significance: **** (**** P < 0.0001)
60 min post SE onset, 0-5 Hz, 2-3 hrs post drug
  Treatment effect on EEG power vs vehicle, significance: *** (*** P < 0.001)
60 min post SE onset, 0-5 Hz, 3-5 hrs post drug
  Treatment effect on EEG power vs vehicle, significance: ** (** P < 0.01)
60 min post SE onset, 0-5 Hz, 15-30 min post drug
  Treatment effect on EEG power vs vehicle, significance: **** (**** P < 0.0001)
60 min post SE onset, 0-5 Hz, 30-60 min post drug
  Treatment effect on EEG power vs vehicle, significance: **** (**** P < 0.0001)
60 min post SE onset, 5-10 Hz, 0-15 min. post drug
  Treatment effect on EEG power vs vehicle, significance: **** (**** P < 0.0001)
60 min post SE onset, 5-10 Hz, 1-2 hrs post drug
  Treatment effect on EEG power vs vehicle, significance: *** (*** P < 0.001)
60 min post SE onset, 5-10 Hz, 2-3 hrs post drug
  Treatment effect on EEG power vs vehicle, significance: ** (** P < 0.01)
60 min post SE onset, 5-10 Hz, 3-5 hrs post drug
  Treatment effect on EEG power vs vehicle, significance: ns
60 min post SE onset, 5-10 Hz, 15-30 min post drug
  Treatment effect on EEG power vs vehicle, significance: **** (**** P < 0.0001)
60 min post SE onset, 5-10 Hz, 30-60 min post drug
  Treatment effect on EEG power vs vehicle, significance: **** (**** P < 0.0001)
60 min post SE onset, 10-30 Hz, 0-15 min. post drug
  Treatment effect on EEG power vs vehicle, significance: * (* P < 0.05)
60 min post SE onset, 10-30 Hz, 1-2 hrs post drug
  Treatment effect on EEG power vs vehicle, significance: ** (** P < 0.01)
60 min post SE onset, 10-30 Hz, 2-3 hrs post drug
  Treatment effect on EEG power vs vehicle, significance: * (* P < 0.05)
